# Assay results published in ChEMBL document CHEMBL4828722, “The synthesis and bioactivity of pyrrolo[2,3-d]pyrimidine derivatives as tyrosine kinase inhibitors for NSCLC cells with EGFR mutations” (Eur J Med Chem, 2021).
# pIC50: −log10 of the molar value. Active and inactive are the calls of the source. The calls are words filed in the database; no cut-off is given here.
# Experiments:
# [1] = system: HCC827; assay: Induction of cell cycle arrest in human HCC827 cells harboring EGFR del E746-A750 mutant assessed as accumulation of cells in G0/G1 phase at 1 uM measured after 18 hrs by PI/RNaseA staining based flow cytometry analysis (Rvb= 49.60%); assay type: functional
# [2] = system: NCI-H460; assay: Cytotoxicity against human NCI-H460 cells harboring wild type EGFR assessed as reduction in cell viability measured after 48 hrs by CCK8 assay; assay type: functional, cell-based; settings: NCI-H460, 48 h
# [3] = system: A549; assay: Cytotoxicity against human A549 cells harboring wild type EGFR assessed as reduction in cell viability measured after 48 hrs by CCK8 assay; assay type: functional, cell-based; settings: A549, 48 h
# [4] = system: HCC827; assay: Cytotoxicity against human HCC827 cells harboring EGFR del E746-A750 mutant assessed as reduction in cell viability measured after 48 hrs by CCK8 assay; assay type: functional, cell-based; settings: HCC827, 48 h
# [5] = system: A549; assay: Induction of cell cycle arrest in human A549 cells harboring wild type EGFR assessed as accumulation of cells in G2/M phase at 0.5 uM measured after 18 hrs by PI/RNaseA staining based flow cytometry analysis (Rvb= 8.47%); assay type: functional
# [6] = system: A549; assay: Induction of cell cycle arrest in human A549 cells harboring wild type EGFR assessed as accumulation of cells in G0/G1 phase at 1 uM measured after 18 hrs by PI/RNaseA staining based flow cytometry analysis (Rvb= 58.27%); assay type: functional
# [7] = system: A549; assay: Induction of cell cycle arrest in human A549 cells harboring wild type EGFR assessed as accumulation of cells in S phase at 1 uM measured after 18 hrs by PI/RNaseA staining based flow cytometry analysis (Rvb= 33.26%); assay type: functional
# [8] = system: A549; assay: Induction of cell cycle arrest in human A549 cells harboring wild type EGFR assessed as accumulation of cells in G2/M phase at 5 uM measured after 18 hrs by PI/RNaseA staining based flow cytometry analysis (Rvb= 8.47%); assay type: functional
# [9] = system: NCI-H1975; assay: Induction of cell cycle arrest in human NCI-H1975 cells harboring EGFR L858R/T790M mutant assessed as accumulation of cells in G0/G1 phase at 0.5 uM measured after 18 hrs by PI/RNaseA staining based flow cytometry analysis (Rvb= 42.69%); assay type: functional
# [10] = system: NCI-H1975; assay: Induction of cell cycle arrest in human NCI-H1975 cells harboring EGFR L858R/T790M mutant assessed as accumulation of cells in S phase at 1 uM measured after 18 hrs by PI/RNaseA staining based flow cytometry analysis (Rvb= 39.78%); assay type: functional
# [11] = system: HCC827; assay: Induction of cell cycle arrest in human HCC827 cells harboring EGFR del E746-A750 mutant assessed as accumulation of cells in G0/G1 phase at 0.5 uM measured after 18 hrs by PI/RNaseA staining based flow cytometry analysis (Rvb= 49.60%); assay type: functional
# [12] = system: HCC827; assay: Induction of cell cycle arrest in human HCC827 cells harboring EGFR del E746-A750 mutant assessed as accumulation of cells in G2/M phase at 1 uM measured after 18 hrs by PI/RNaseA staining based flow cytometry analysis (Rvb= 16.78%); assay type: functional
# [13] = system: HCC827; assay: Induction of cell cycle arrest in human HCC827 cells harboring EGFR del E746-A750 mutant assessed as accumulation of cells in G0/G1 phase at 5 uM measured after 18 hrs by PI/RNaseA staining based flow cytometry analysis (Rvb= 49.60%); assay type: functional
# [14] = system: HCC827; assay: Induction of cell cycle arrest in human HCC827 cells harboring EGFR del E746-A750 mutant assessed as accumulation of cells in S phase at 5 uM measured after 18 hrs by PI/RNaseA staining based flow cytometry analysis (Rvb= 33.62%); assay type: functional
# [15] = system: NCI-H1975; assay: Induction of apoptosis in human NCI-H1975 cells harboring EGFR L858R/T790M mutant assessed as live cells at 0.5 uM measured after 18 hrs by Annexin V-FITC/PI staining based flow cytometry analysis (Rvb= 89.4%); assay type: functional
# [16] = system: NCI-H1975; assay: Induction of apoptosis in human NCI-H1975 cells harboring EGFR L858R/T790M mutant assessed as early apoptotic cells at 0.5 uM measured after 18 hrs by Annexin V-FITC/PI staining based flow cytometry analysis (Rvb= […]); assay type: functional
# [17] = system: NCI-H1975; assay: Induction of apoptosis in human NCI-H1975 cells harboring EGFR L858R/T790M mutant assessed as dead cells at 0.5 uM measured after 18 hrs by Annexin V-FITC/PI staining based flow cytometry analysis (Rvb= […]); assay type: functional
# [18] = system: NCI-H1975; assay: Induction of apoptosis in human NCI-H1975 cells harboring EGFR L858R/T790M mutant assessed as total apoptotic cells at 0.5 uM measured after 18 hrs by Annexin V-FITC/PI staining based flow cytometry analysis (Rvb= 9.2%); assay type: functional
# [19] = system: NCI-H1975; assay: Induction of apoptosis in human NCI-H1975 cells harboring EGFR L858R/T790M mutant assessed as live cells at 5 uM measured after 18 hrs by Annexin V-FITC/PI staining based flow cytometry analysis (Rvb= 89.4%); assay type: functional
# [20] = system: NCI-H1975; assay: Induction of apoptosis in human NCI-H1975 cells harboring EGFR L858R/T790M mutant assessed as late apoptotic cells at 5 uM measured after 18 hrs by Annexin V-FITC/PI staining based flow cytometry analysis (Rvb= 0.1%); assay type: functional
# [21] = system: HCC827; assay: Induction of apoptosis in human HCC827 cells harboring EGFR del E746-A750 mutant assessed as total apoptotic cells at 0.5 uM measured after 18 hrs by Annexin V-FITC/PI staining based flow cytometry analysis (Rvb= 10.8%); assay type: functional
# [22] = system: HCC827; assay: Induction of apoptosis in human HCC827 cells harboring EGFR del E746-A750 mutant assessed as live cells at 5 uM measured after 18 hrs by Annexin V-FITC/PI staining based flow cytometry analysis (Rvb= 87.5%); assay type: functional
# [23] = system: HCC827; assay: Induction of apoptosis in human HCC827 cells harboring EGFR del E746-A750 mutant assessed as late apoptotic cells at 5 uM measured after 18 hrs by Annexin V-FITC/PI staining based flow cytometry analysis (Rvb= 1.2%); assay type: functional
# [24] = system: HCC827; assay: Induction of apoptosis in human HCC827 cells harboring EGFR del E746-A750 mutant assessed as dead cells at 5 uM measured after 18 hrs by Annexin V-FITC/PI staining based flow cytometry analysis (Rvb= […]); assay type: functional
# [25] = system: HCC827; assay: Induction of apoptosis in human HCC827 cells harboring EGFR del E746-A750 mutant assessed as total apoptotic cells at 5 uM measured after 18 hrs by Annexin V-FITC/PI staining based flow cytometry analysis (Rvb= 10.8%); assay type: functional
# [26] = molecular target: MAP kinase p38 (Homo sapiens) (UniProt O15264+Q15759+Q16539+P53778); assay: Inhibition of p38 MAPK phosphorylation at Thr180/Tyr182 residue in human HBE cells at 5 uM incubated for 2 hrs by immunoblotting analysis; assay type: cell-based
# [27] = system: NCI-H1975; assay: Inhibition of AKT phosphorylation in human NCI-H1975 cells at 0.1 to 5 uM incubated for 2 hrs by immunoblotting analysis; assay type: cell-based; settings: dose 0.1-5 µM
Compound,Activity [1] [%],pIC50 [2],pIC50 [3],pIC50 [4],Activity [5] [%],Activity [6] [%],Activity [7] [%],Activity [8] [%],Activity [9] [%],Activity [10] [%],Activity [11] [%],Activity [12] [%],Activity [13] [%],Activity [14] [%],Activity [15] [%],Activity [16] [%],Activity [17] [%],Activity [18] [%],Activity [19] [%],Activity [20] [%],further results
C=CC(=O)Nc1cccc(Oc2nc(Nc3ccc(N4CCN(C)CC4)c(N)c3)nc3[nH]ccc23)c1,72.43,4.57,5.22,7.34,10.49,64.23,26.07,8.09,64.04,19.24,74.57,7.18,78.12,13.93,81.1,16.1,2.5,16.4,81.9,0.2,Activity [21]: 23.6%; Activity [22]: 74.3%; Activity [23]: 16.6%; Activity [24]: 2.1%; Activity [25]: 28.7%; inhibition [26]: Active; inhibition [27]: Active
C=CC(=O)Nc1cccc(Oc2nc(Nc3ccc(N4CCN(C)CC4)c([N+](=O)[O-])c3)nc3[nH]ccc23)c1,77.64,5.10,5.54,6.96,9.99,70.46,21.21,9.25,64.89,13.11,77.19,11.55,81.52,4.36,85.3,12.4,2,12.7,84.7,0.3,Activity [21]: 23.8%; Activity [22]: 73.7%; Activity [23]: 19.4%; Activity [24]: 2.5%; Activity [25]: 30.3%; inhibition [26]: Active; inhibition [27]: Active
C=CC(=O)Nc1cccc(Oc2nc(Nc3ccc(N4CCN(C)CC4)c(F)c3)nc3[nH]ccc23)c1 [ABIVERTINIB],73,5.22,5.72,7.00,10.15,62.04,28.99,7.55,61.74,18.87,75.11,11.63,80.34,10.83,89,8.3,1.5,9.5,86.3,0.4,Activity [21]: 30.3%; Activity [22]: 63%; Activity [23]: 21.6%; Activity [24]: 1.5%; Activity [25]: 35.4%; inhibition [26]: Active; inhibition [27]: Active
